Assay results as given in patent publication US7601732B2, “Crystalline form of 5(S)-(2-hydroxyethoxy)-20(S)-camptothecin” (Dr. Reddy's Laboratories Limited, priority 2006, dated 2009).
Like-named read-outs stand apart in the source and are kept apart here.

Key:
[1] = system: NCI-H460 (human small cell lung carcinoma) xenografts; experiment: NCI-H460 xenograft study in nude mice; assay type: in vivo; conditions: oral, (d×5)2 schedule
Method: Percentage tumor growth inhibition was calculated using the formula: Percentage Tumor growth inhibition=100−% T/C.
The other parameter observed was mortality.

in vivo [2] = experiment: in vivo; parameters: species or system Swiss Albino mice; conditions: Swiss Albino, mouse, po, 5 mg/kg
Method: 5(S)-CPT (2.5 mg/kg) and 5(RS)-CPT (5 mg/kg, including 2.5 mg/kg of 5(S)-CPT in the mixture) were been administered to Swiss Albino mice to evaluate oral pharmacokinetics.
(§1) Swiss Albino mice, 3-6 weeks of age and weighing between 28-34 g were used in the study. Twelve mice were used per study. The oral pharmacokinetics test was carried out in overnight fasted condition and intravenous pharmacokinetics was carried out in fed condition. The test drugs were administered as a solution by oral gavage or lateral tail vein injection. Sparse blood samples of about 250 microliters were collected from retro-orbital plexus at designated time points into microcentrifuge tubes containing 25 microliters of EDTA. Plasma was separated by centrifuging blood at 12,800 rpm for 2 min and refrigerated until analysis.
(§2) Samples were tested for the presence of the test drug as follows. An aliquot of 100 μl plasma (stored at 8° C.) was precipitated with 400 μl of cold methanol for the estimation of total (lactone+carboxylate). […] Concentrations of the test drug were calculated from the linearity plotted by spiking known concentrations of the test drug in blank rat plasma. The pharmacokinetics of the test drug was calculated using non-compartmental analysis.

Topoisomerase I = molecular target: T1, Topoisomerase I (Homo sapiens, UniProt P11387); experiment: Topoisomerase I assay (TopoGEN Topo I Drug Screening Kit); assay type: biochemical
T1 construct: purchased Topogen, Inc., Port Orange, Fla
T1 sequence (P11387 1-765): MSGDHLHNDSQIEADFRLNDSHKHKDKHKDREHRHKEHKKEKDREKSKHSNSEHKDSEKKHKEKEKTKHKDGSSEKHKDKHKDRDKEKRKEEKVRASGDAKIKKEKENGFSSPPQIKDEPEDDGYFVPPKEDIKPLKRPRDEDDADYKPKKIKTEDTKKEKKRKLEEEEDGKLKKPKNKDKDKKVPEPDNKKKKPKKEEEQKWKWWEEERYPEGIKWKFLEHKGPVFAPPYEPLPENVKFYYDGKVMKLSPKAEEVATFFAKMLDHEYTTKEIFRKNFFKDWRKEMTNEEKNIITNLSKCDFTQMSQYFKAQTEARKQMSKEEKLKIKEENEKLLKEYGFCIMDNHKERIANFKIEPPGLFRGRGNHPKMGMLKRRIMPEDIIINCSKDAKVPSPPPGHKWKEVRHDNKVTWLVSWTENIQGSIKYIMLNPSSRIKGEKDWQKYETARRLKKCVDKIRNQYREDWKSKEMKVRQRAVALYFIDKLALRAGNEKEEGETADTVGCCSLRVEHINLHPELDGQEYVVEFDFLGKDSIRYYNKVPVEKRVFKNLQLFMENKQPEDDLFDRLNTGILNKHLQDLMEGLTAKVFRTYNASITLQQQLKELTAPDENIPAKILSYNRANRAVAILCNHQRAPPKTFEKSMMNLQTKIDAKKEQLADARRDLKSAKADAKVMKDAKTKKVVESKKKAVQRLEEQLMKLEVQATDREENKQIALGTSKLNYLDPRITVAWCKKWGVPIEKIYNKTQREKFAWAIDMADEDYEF
From the text: Topoisomerase I introduces transient nicks in DNA at specific sites. Detection of these transient DNA nicks requires trapping the enzyme on DNA in a nicked intermediate complex using protein denaturants. The resulting covalent DNA/topo I complexes contain nicked open circular DNA which can be detected by agarose gel electrophoresis (with ethidium bromide). Trapping nicked intermediates is relatively inefficient, however, inhibitors, such as the natural product camptothecin, stabilize the intermediate and lead to an increase in the nicked DNA product. This forms the basis for a mechanistic drug screen designed to allow detection of agents that affect topoisomerase I by stabilizing the cleaved intermediate complex.
The TopoGEN® Topo I Drug Screening Kit (Topogen, Inc., Port Orange, Fla.) is designed to allow the investigator to quickly identify novel inhibitors of topoisomerase I. The kit allows the detection of novel compounds that either stabilize the nicked intermediate or otherwise inhibit catalytic activity of topoisomerase I.
The above reaction mixture is incubated at 37° C. for 30 minutes. The reaction is terminated by adding 2 μl of 10% SDS and the mixture is vortexed rapidly (SDS should be added while at 37° C. as cooling the tubes might reseal the nicked DNA). 10× Dye, about 2.5 μl per tube, is added and equal volumes of a mixture of chloroform and isoamyl alcohol (24:1) is added and centrifuged at 13000 rpm for 10 minutes. Samples are loaded on a 1% agarose gel and electrophoresed for 1 hour at 80 volts. The gel was viewed on UV transilluminator and the densitometric estimation of the bands was calculated.
The density of the DNA bands of both super coiled and relaxed forms of DNA was measured using the densitometer. The band intensity of treated (with single concentration of the test drug) and without the drug (i.e., the Control) were recorded. The percentage of relaxed form DNA compared to the supercoiled DNA was calculated for all the lanes including treated and control.
% inhibition of Topoisomerase activity was calculated as: =(100−(100×(1/% inhibition in Control)×% inhibition in treated))

in vivo [3] = experiment: in vivo; parameters: species or system male Wistar rats; conditions: male, Wistar, rat, po, 5 mg/kg
Method: 5(S)-CPT (2.5 mg/kg) and 5(RS)-CPT (5 mg/kg, including 2.5 mg/kg of 5(S)-CPT in the mixture) were been administered to male Wistar Rats to evaluate oral pharmacokinetics.
as §1, with “Male Wistar rats, 6-8” for “Swiss Albino mice, 3-6”, “205 and 218” for “28-34”, “divided into groups of four rats.” for “used in the study. Twelve mice were used per study.”
as §2

[4] = system: Human bone marrow mononuclear cells; experiment: Human bone marrow assay (CFU-GM colony inhibition); assay type: cell-based
Method: Methocult™ GF (Cat No: H4534, Poietics, Biowhittakar, USA) medium comprising Methycellulose in Iscove's MDM, Fetal bovine serum, Bovine serum albumin, 2-Mercaptoethanol, L-Glutamine, rhStem cell factor, rhGM-CSF and rhIL-3 was used for the assay. Human bone marrow mononuclear cells (Cat No. 2M-125C, Poietics, Biowhittakar, USA) were mixed with Methocult™ GF and the cell density was adjusted to 3×10^5 cells/ml. From this preparation, 500 μL aliquots were made and 2.5 μL of 20× drug solution or vehicle was added to each aliquot and mixed thoroughly. 100 μL of clonogenic medium was plated into each well and the plates were allowed to gel at 4° C. for 15 minutes. Plates were incubated at 37° C. in a fully humidified atmosphere of 5% CO2 in an incubator for 14 days. CFU-GM colonies were counted under an inverted microscope as aggregates of 50 cells or more. The percentage colony inhibition was calculated using the following formula: 100−[(number of colonies in drug treated wells/Number of colonies in control wells)×100].

[5] = system: Saos-2 cells over expressing functional BCRP#4; assay type: cell-based, human
Method: (§3) The anticancer effect of 5(S)-CPT & 5(R)-CPT were evaluated versus the diastereoisomeric mixture 5(RS)-CPT on Saos-2 cells over expressing functional BCRP#4 and non-functional BCRP mut#10. The human osteosarcoma cell line, Saos-2, was obtained from ATCC (American Type Culture Collection, Cat#HTB-85, Manassas, Va.) and were maintained in DMEM containing 10% fetal bovine serum, 1% penicillin/streptomycin, and 2 mM glutamine. Saos-2 cells were transfected with either BCRP#4 to over express functional BCRP or BCRP#10 to over express non-functional BCRP transporter. The cells were plated in 96-well plates at a density of 1000 cells per each well in a 0.1 ml of medium and allowed to attach overnight. The next morning the medium was gently aspirated and serial dilutions of the compounds to be tested were added. The cells were incubated at 37° C. in a 5% CO2 incubator. After 6 days of exposure to the test drugs, 10 μl of Alamar blue was added aseptically to each well and the plates were returned to the incubator for 6 hr. The amount of the fluorescent dye produced was measured on a Cytofluor 2300(Millipore, Bedford, Mass.) using an excitation wavelength of 530 nm and emission wavelength of 590 nm. The relative fluorescence units obtained were used to calculate the percentage growth at each concentration in relation to the untreated control values. […]

[6] = system: Saos-2 cells over expressing non-functional BCRP mut#10; assay type: cell-based, human
Method: as §3

[7] = assay type: physicochemical; conditions: accelerated stability 40° C.±2° C./75% RH±5% RH for 6 months
Method: The water content of crystalline 5(S)-CPT was measured by Mettler® DL 31 KF apparatus by using Karl Fischer reagent. A weighed quantity of crystalline 5(S)-CPT was transferred into a titration vessel of a Karl Fischer apparatus containing about 40 ml of previously neutralized methanol. The sample was dissolved with stirring, and was titrated with Karl Fisher Reagent to the end point under vigorous stirring. Water content was calculated as: […]
The product is stable in 6 months accelerated conditions.
In one embodiment, 5(S)-CPT is isolated in crystalline form, which exists substantially free from water (i.e., essentially anhydrous). The term “substantially free from water” means the presence of less than about 1.0% water w/w and even specifically less than about 0.5% water w/w as measured by Karl Fisher analysis or TGA. […] The product is stable for 6 months under accelerated stability testing conditions of 40° C.±2° C./75% RH±5% RH and stable for 24 months under long term stability testing conditions at 30° C.±2° C./65%±5% RH.

**Q.** What does the source list for CC[C@@]1(O)C(=O)OCc2c1cc1n(c2=O)C(OCCO)c2cc3ccccc3nc2-1 (mixture of isomers) [5(RS)-CPT, 5(RS)-(2′-hydroxyethoxy)-20(S)-camptothecin, reference compound]?
**A.** % Tumor Growth Inhibition ([1]; 2 mg/kg): 60%; Mortality ([1]; 2 mg/kg): 0/5; Mortality ([1]; 4 mg/kg): 0/5; AUC (in vivo [2]): 5.2 µM·h; IC50 (Topoisomerase I): 12.5 µM; AUC (in vivo [3]): 5.08 µM·h

**Q.** What does the source list for CC[C@@]1(O)C(=O)OCc2c1cc1n(c2=O)[C@@H](OCCO)c2cc3ccccc3nc2-1 [5(S)-CPT, 5(S)-(2′-hydroxyethoxy)-20(S)-camptothecin]?
**A.** Mortality ([1]; 2 mg/kg): 0/5; Mortality ([1]; 4 mg/kg): 0/5; AUC (in vivo [2]): 5.18 µM·h; GI90 for human bone marrow cells in vitro ([4]; human, 14 days): 0.69 µM; Safety Margin (GI90/GI50) ([4]; ratio of GI90 for human cell toxicity to GI50 for anticancer activity): 0.14; IC50 (Topoisomerase I): 1.06 µM; fold more active than 5(R)-CPT in inhibiting topoisomerase I (Topoisomerase I; versus 5(R)-CPT): about 21 fold; times more active than 5(RS)-CPT in inhibiting topoisomerase I (Topoisomerase I; versus 5(RS)-CPT): about 12 times; fold more cytotoxic than 5(R)-CPT [5]: > 2.5 fold; fold more cytotoxic than 5(R)-CPT [6]: ~6 fold; AUC (in vivo [3]): 5.76 µM·h; change in water content (Karl Fisher analysis) [7]: no appreciable change; hygroscopicity [7]: non-hygroscopic; change in water content (Karl Fisher analysis) ([7]; listed as crystalline 5(S)-CPT): No change

**Q.** Which “GI90 for human bone marrow cells in vitro” value ([4]; human, 14 days) does the source give for CC[C@@]1(O)C(=O)OCc2c1cc1n(c2=O)[C@H](OCCO)c2cc3ccccc3nc2-1 [5(R)-CPT, 5(R)-(2′-hydroxyethoxy)-20(S)-camptothecin, reference compound] here?
**A.** 0.89 µM

**Q.** What about the “Safety Margin (GI90/GI50)” value ([4]; human, 14 days) of the same compound?
**A.** 0.06

**Q.** And the IC50 (Topoisomerase I)?
**A.** 22 µM
